Assay results published in patent US20090197938A1, “Polyphenol Type Compounds, Compositions Containing Same and Use Thereof for Preventing or Treating Diseases Involving Abnormal Cell Proliferation” (Fluofarma, priority 2005, published 2009).

Tests used:
[1] = tested on: DNA topoisomerase II; test: Inhibition of DNA topoisomerase II (decatenation); type: biochemical
Source text: Inhibition of DNA Topoisomerase II

[2] = tested on: cancer cells; settings: cited from earlier work
[3] = tested on: cancer cells; test: Effect on cell proliferation at 24H and 48H; type: cell-based; settings: 24H and 48H (figure)
Source text: (§1) FIG. 1 represents the effect of different concentrations of Castaline on apoptosis at 24H and 48 H and cell proliferation at 24H and 48H.
(§2) FIG. 2 represents the effect of different concentrations of Vescalene on apoptosis at 24H and 48 H and cell proliferation at 24H and 48H.
(§3) FIG. 3 represents the effect of different concentrations of Castalagine on apoptosis at 24H and 48H and cell proliferation at 24H and 48H.
(§4) FIG. 4 represents the effect of different concentrations of Acutissimine on apoptosis at 24H and 48H and cell proliferation at 24H and 48H.

[4] = tested on: cancer cells; test: Pro-apoptotic activity (apoptosis at 24H and 48H); type: cell-based; settings: different concentrations, 24H and 48H (figure)
Source text: as §1, §2, §3, §4

Vescaline
Inhibition of decatenation (%) ([1]; compound concentration 1 μm): 95.5% | Inhibition of decatenation (%) ([1]; compound concentration 10 μm): 100%

acutissimine B
proliferation of cancer cells with subtoxic doses (background statement) [2]: stimulate the proliferation of cancer cells

Acutissimine A [reference compound]
effect on cell proliferation with subtoxic doses [3]: increases cell proliferation | proliferation of cancer cells with subtoxic doses (background statement) [2]: stimulate the proliferation of cancer cells

vescalagine
proliferation of cancer cells with subtoxic doses (background statement) [2]: stimulate the proliferation of cancer cells

Vescalene
pro-apoptotic activity [4]: has a pro-apoptotic activity | effect on cell proliferation with subtoxic doses [3]: does not increase cell proliferation in a noteworthy manner | Inhibition of decatenation (%) ([1]; compound concentration 1 μm): 78.8% | Inhibition of decatenation (%) ([1]; compound concentration 10 μm): 97.3%

epiacutissamine B
proliferation of cancer cells with subtoxic doses (background statement) [2]: stimulate the proliferation of cancer cells

Castalagine [reference compound]
effect on cell proliferation with subtoxic doses [3]: increases cell proliferation | proliferation of cancer cells with subtoxic doses (background statement) [2]: stimulate the proliferation of cancer cells

epiacutissamine A
proliferation of cancer cells with subtoxic doses (background statement) [2]: stimulate the proliferation of cancer cells

Castaline
pro-apoptotic activity [4]: has a pro-apototic activity | effect on cell proliferation with subtoxic doses [3]: does not increase cell proliferation in a noteworthy manner | Inhibition of decatenation (%) ([1]; compound concentration 1 μm): 87.9% | Inhibition of decatenation (%) ([1]; compound concentration 10 μm): 67.0%
